{"source": "patent US6528295B2", "about": "“Protein phosphatase methylesterase” (priority 1998, dated 2003)", "key": {"human PME-1 [1]": {"target": "human PME-1 (Homo sapiens, UniProt Q9Y570)", "sequence (Q9Y570 2-386)": "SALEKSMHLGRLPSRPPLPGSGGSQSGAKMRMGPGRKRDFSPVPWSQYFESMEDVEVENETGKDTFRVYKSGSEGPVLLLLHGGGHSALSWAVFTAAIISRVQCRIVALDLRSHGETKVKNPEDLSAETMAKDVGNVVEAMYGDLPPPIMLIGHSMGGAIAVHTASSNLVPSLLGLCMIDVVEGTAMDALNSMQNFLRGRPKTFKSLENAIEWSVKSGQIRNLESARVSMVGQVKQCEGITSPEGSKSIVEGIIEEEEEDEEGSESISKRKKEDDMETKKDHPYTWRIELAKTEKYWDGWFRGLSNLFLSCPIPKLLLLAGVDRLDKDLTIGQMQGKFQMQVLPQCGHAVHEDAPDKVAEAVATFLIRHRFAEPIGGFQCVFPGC", "type": "biochemical"}, "PP2A methyltransferase": {"system": "PP2A methyltransferase", "conditions": "cited from earlier work"}, "PP2A": {"target": "PP2A (Homo sapiens, UniProt P67775)", "sequence (P67775 whole entry)": "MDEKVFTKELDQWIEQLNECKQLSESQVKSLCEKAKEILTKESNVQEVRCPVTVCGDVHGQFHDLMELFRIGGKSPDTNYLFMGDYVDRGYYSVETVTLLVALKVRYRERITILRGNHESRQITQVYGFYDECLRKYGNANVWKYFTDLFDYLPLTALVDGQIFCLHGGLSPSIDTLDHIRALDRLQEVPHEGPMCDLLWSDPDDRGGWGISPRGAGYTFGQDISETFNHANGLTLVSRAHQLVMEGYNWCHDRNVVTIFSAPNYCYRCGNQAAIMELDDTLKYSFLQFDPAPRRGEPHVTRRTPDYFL", "type": "biochemical"}, "human PME-1 [2]": {"system": "human PME-1", "type": "biochemical"}, "H59Q/PME-1 complex": {"target": "T1, H59Q/PME-1 complex (Homo sapiens, UniProt P67775, H59Q)", "T1 construct": "expressed in transfected cells; host or cells: NIH3T3 (A3); MT-transformed NIH3T3 (A8); PME-1 is endogenous", "T1 sequence (P67775 whole entry H59Q)": "as the sequence (P67775 whole entry) above, with H59Q counted along it", "T1 sequence (Q76MZ3 whole entry partner)": "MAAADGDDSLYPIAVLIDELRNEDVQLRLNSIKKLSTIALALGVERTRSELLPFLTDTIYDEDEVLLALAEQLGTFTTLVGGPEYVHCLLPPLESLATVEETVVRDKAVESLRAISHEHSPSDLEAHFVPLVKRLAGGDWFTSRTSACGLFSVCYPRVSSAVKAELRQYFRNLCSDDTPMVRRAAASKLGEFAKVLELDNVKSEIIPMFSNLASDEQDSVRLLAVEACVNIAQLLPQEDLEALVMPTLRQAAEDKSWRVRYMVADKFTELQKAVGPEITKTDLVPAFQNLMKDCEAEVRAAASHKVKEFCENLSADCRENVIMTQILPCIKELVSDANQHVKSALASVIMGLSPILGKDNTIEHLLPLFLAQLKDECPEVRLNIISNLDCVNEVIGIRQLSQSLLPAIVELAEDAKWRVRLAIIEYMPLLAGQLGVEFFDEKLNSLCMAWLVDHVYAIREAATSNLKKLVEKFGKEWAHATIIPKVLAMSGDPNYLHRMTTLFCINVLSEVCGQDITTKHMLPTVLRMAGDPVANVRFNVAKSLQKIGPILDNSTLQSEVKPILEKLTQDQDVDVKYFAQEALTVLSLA", "type": "binding, mouse"}, "[3]": {"system": "46 kDa PP2A methylesterase", "conditions": "cited from earlier work"}, "PME-1": {"target": "T2, PME-1 (Mus musculus, UniProt Q8BVQ5)", "T2 construct": "endogenous in cells; host or cells: MT-transformed NIH3T3 cells (C subunit mutants stably transfected)", "T2 sequence (Q8BVQ5 1-386)": "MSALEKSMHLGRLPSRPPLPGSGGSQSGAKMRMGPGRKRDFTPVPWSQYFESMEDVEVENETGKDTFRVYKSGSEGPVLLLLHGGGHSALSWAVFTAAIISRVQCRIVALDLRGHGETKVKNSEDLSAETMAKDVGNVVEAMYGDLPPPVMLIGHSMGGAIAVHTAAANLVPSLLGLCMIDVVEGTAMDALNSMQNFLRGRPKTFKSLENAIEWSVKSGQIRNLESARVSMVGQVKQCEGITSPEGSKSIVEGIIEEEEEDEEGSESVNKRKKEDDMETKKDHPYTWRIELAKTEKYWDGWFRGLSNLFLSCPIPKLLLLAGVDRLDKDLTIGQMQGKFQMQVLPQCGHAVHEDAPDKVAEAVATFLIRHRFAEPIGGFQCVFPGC", "assay": "Immunoprecipitation assay of PME-1 binding to H59Q/301Stop versus H59Q", "conditions": "all seven experiments"}, "[4]": {"system": "phosphorylase a and cdc2-phosphorylated histone H1", "assay": "Phosphatase activity in anti-HA tag immunoprecipitates of wt and mutant C subunits", "type": "biochemical", "conditions": "normalized to wt, four independent experiments"}}, "note": "“Also recorded” adds a separate entry of the source. *1 amine or outer side, *2 acyl side, *3 side chain or, on linkers, in order; H or OH if unused. Where a SMILES comes first, the peptide text is derived from it. Bridges are numbered along the chain shown (N, C = ends). [ ]: non-standard residue; d: D form. Adda = CO[C@@H](Cc1ccccc1)[C@@H](C)/C=C(C)/C=C/[C@H](N[*:1])[C@H](C)C(=O)[*:2]; dAsp(3S-Me) = C[C@H](C(=O)[*:3])[C@@H](N[*:1])C(=O)[*:2]; d(γGlu) = O=C(O)[C@@H](CCC(=O)[*:2])N[*:1]; NMeDha = C=C(NC)C(=O)O", "data": [{"compound": "O=S(=O)(F)Cc1ccccc1", "note": "[PMSF, phenylmethylsulfonyl fluoride]", "values": [{"measurement": "methylesterase activity of bacterially expressed PME-1", "setting": "human PME-1 [1]", "result": "not"}]}, {"compound": "C=C1C(=O)N[C@H](C)C(=O)N[C@@H](CC(C)C)C(=O)N[C@@H](C(=O)O)[C@H](C)C(=O)N[C@@H](CCCNC(=N)N)C(=O)N[C@@H](/C=C/C(C)=C/[C@H](C)[C@H](Cc2ccccc2)OC)[C@H](C)C(=O)N[C@@H](C(=O)O)CCC(=O)N1C", "note": "[microcystin-LR] (R[Adda][d(γGlu)][NMeDha][dA]L[dAsp(3S-Me)]-OH; lactam N-7)", "values": [{"measurement": "inhibition of the PP2A methyltransferase", "setting": "PP2A methyltransferase", "result": "inhibited"}]}, {"compound": "C=C1[C@@H](O)[C@@H]2O[C@]3(CC[C@H](/C=C/[C@@H](C)[C@@H]4CC(C)=C[C@@]5(O[C@H](C[C@@](C)(O)C(=O)O)CC[C@H]5O)O4)O3)CC[C@H]2O[C@@H]1[C@@H](O)C[C@H](C)[C@H]1O[C@@]2(CCCCO2)CC[C@H]1C", "note": "[okadaic acid]", "values": [{"measurement": "inhibition of PP2A", "setting": "PP2A", "result": "97±4", "unit": "%"}, {"measurement": "methylesterase activity of bacterially expressed PME-1", "setting": "human PME-1 [2]", "result": "inhibited"}, {"measurement": "amount of PME-1 bound to (complexed with) H59Q C subunit", "setting": "H59Q/PME-1 complex", "result": "reduce; also recorded: decreased"}, {"measurement": "inhibition of the 46 kDa PP2A methylesterase", "setting": "[3]", "result": "inhibited"}, {"measurement": "inhibition of the PP2A methyltransferase", "setting": "PP2A methyltransferase", "result": "inhibited"}]}, {"compound": "[F-].[Na+]", "note": "[sodium fluoride]", "values": [{"measurement": "inhibition of PP2A", "setting": "PP2A", "result": "91±10", "unit": "%"}, {"measurement": "amount of PME-1 bound to (complexed with) H59Q C subunit", "setting": "H59Q/PME-1 complex", "result": "reduce; also recorded: decreased"}]}, {"compound": "H59Q/301Stop: double mutant combining H59Q with deletion of the nine C subunit carboxy-terminal amino acids 301-309", "values": [{"measurement": "overall mean reduction of PME-1 bound relative to H59Q", "setting": "PME-1", "result": 28, "unit": "%"}]}, {"compound": "sodium vanadate", "values": [{"measurement": "inhibition of PP2A", "setting": "PP2A", "result": "25±18", "unit": "%"}, {"measurement": "amount of PME-1 bound to (complexed with) H59Q C subunit", "setting": "H59Q/PME-1 complex", "result": "not"}]}, {"compound": "wt: HA-tagged wild-type PP2A C subunit", "values": [{"measurement": "C subunit-associated phosphatase activity, cdc2-phosphorylated Histone H1 (Mean ± s.d.)", "setting": "[4]; substrate cdc2-phosphorylated histone H1", "result": 100, "unit": "% wt"}, {"measurement": "C subunit-associated phosphatase activity, phosphorylase a (Means ± s.d.)", "setting": "[4]; substrate phosphorylase a", "result": 100, "unit": "% wt"}]}]}
